Measurements published in PubChem BioAssay AID256 (DTP/NCI, 2004).
Toxic doses and inconclusive results are not listed. The calls were made as follows: active = survival T/C of 150% or more; inactive = T/C below 125% in these data.

System: CD2F1 mice, L1210 leukemia ip, survival T/C
Test: NCI In Vivo Anticancer Drug Screen. Data for tumor model L1210 Leukemia (intraperitoneal) in CD2F1 (CDF1) mice
Conditions: endpoint: mean survival time, higher = longer survival
Procedure, shortened: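 Ratio T/C, where T is the treated-group value and C the vehicle-dosed control value, from mice implanted with a transplantable tumor.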

[1] = dose: 100.0 mg/kg/injection, schedule: Q01DX001 (ip), vehicle: saline with Tween-80
[2] = dose: 200.0 mg/kg/injection, schedule: Q01DX001 (ip), vehicle: saline with Tween-80
[3] = dose: 100.0 mg/kg/injection, schedule: Q04DX003 (ip), vehicle: saline
[4] = dose: 200.0 mg/kg/injection, schedule: Q04DX003 (ip), vehicle: saline
[5] = dose: 400.0 mg/kg/injection, schedule: Q04DX003 (ip), vehicle: saline
[6] = dose: 25.0 mg/kg/injection, schedule: Q04DX002 (ip), vehicle: saline with Tween-80
[7] = dose: 50.0 mg/kg/injection, schedule: Q04DX002 (ip), vehicle: saline with Tween-80

Measured: T/C

O=S(=O)(c1ccc(Cl)cc1)N(Cl)Cl
inactive: [1] 103 % of control | [2] 101 % of control

CC(=O)C(C)N(C)C (configuration not stated)
inactive: [3] 105 % of control | [4] 100 % of control | [5] 96 % of control

CNC(=S)NNc1ccc(Cl)cc1
inactive: dose: 12.5 mg/kg/injection, schedule: Q01DX009 (ip), vehicle: other 96 % of control | dose: 25.0 mg/kg/injection, schedule: Q01DX009 (ip), vehicle: other 94 % of control | dose: 50.0 mg/kg/injection, schedule: Q01DX009 (ip), vehicle: other 93 % of control | dose: 100.0 mg/kg/injection, schedule: Q01DX009 (ip), vehicle: other 104 % of control

c1cc2c(c(OCC3=NCCN3)c1)CCCC2
inactive: dose: 25.0 mg/kg/injection, schedule: Q04DX002 (ip), vehicle: saline 94 % of control | dose: 50.0 mg/kg/injection, schedule: Q04DX002 (ip), vehicle: saline 110 % of control

Cc1cc(C2(c3ccc(O)c(C)c3)CCCCC2)ccc1O
inactive: [1] 97 % of control | dose: 100.0 mg/kg/injection, schedule: Q01DX009 (ip), vehicle: Klucel (hydroxypropylcellulose) (HPC) 95 % of control | [2] 94 % of control | dose: 200.0 mg/kg/injection, schedule: Q01DX009 (ip), vehicle: Klucel (hydroxypropylcellulose) (HPC) 94 % of control | dose: 400.0 mg/kg/injection, schedule: Q01DX001 (ip), vehicle: saline with Tween-80 96 % of control | dose: 400.0 mg/kg/injection, schedule: Q01DX009 (ip), vehicle: Klucel (hydroxypropylcellulose) (HPC) 94 % of control

CCCCCCOc1ccc(N=Cc2ccc(N(C)C)cc2)cc1
inactive: dose: 75.0 mg/kg/injection, schedule: Q01DX001 (ip), vehicle: other 93 % of control | dose: 150.0 mg/kg/injection, schedule: Q01DX001 (ip), vehicle: other 94 % of control

O=C(CNC(=O)Nc1cccc([N+](=O)[O-])c1)N/N=C/c1ccncc1
inactive: dose: 50.0 mg/kg/injection, schedule: Q01DX009 (ip), vehicle: saline with Tween-80 89 % of control | dose: 100.0 mg/kg/injection, schedule: Q01DX009 (ip), vehicle: saline with Tween-80 89 % of control | dose: 200.0 mg/kg/injection, schedule: Q01DX009 (ip), vehicle: saline with Tween-80 93 % of control

Oc1ccccc1C=NCC1CCCC[N-]1.Oc1ccccc1C=NCC1CCCC[N-]1.[Ni+2] (configuration not stated)
inactive: [6] 101 % of control | [7] 98 % of control | [1] 96 % of control | dose: 100.0 mg/kg/injection, schedule: Q04DX002 (ip), vehicle: saline with Tween-80 96 % of control | dose: 132.0 mg/kg/injection, schedule: Q01DX001 (ip), vehicle: saline with Tween-80 101 % of control | [2] 102 % of control | dose: 200.0 mg/kg/injection, schedule: Q04DX002 (ip), vehicle: saline with Tween-80 101 % of control | dose: 300.0 mg/kg/injection, schedule: Q01DX001 (ip), vehicle: saline with Tween-80 107 % of control

COC1=C(C)C(=O)C2=C(C1=O)C(COC(N)=O)C(=O)C1NC1CN2C (configuration not stated)
inactive: dose: 4.7 mg/kg/injection, schedule: Q01DX001 (ip), vehicle: carboxymethylcellulose (CMC) 110 % of control

CC(C)(CO)NC(=O)CCO
inactive: dose: 100.0 mg/kg/injection, schedule: Q01DX009 (ip), vehicle: saline 101 % of control | [3] 97 % of control | dose: 200.0 mg/kg/injection, schedule: Q01DX009 (ip), vehicle: saline 103 % of control | [4] 98 % of control | dose: 400.0 mg/kg/injection, schedule: Q01DX009 (ip), vehicle: saline 104 % of control | [5] 101 % of control

c1ccc(OCC2(N3CCCCC3)CCCC2)cc1
inactive: [6] 103 % of control | [7] 108 % of control

C[N+](C)(CCCCCCCCCC[N+](C)(C)CC(=O)c1ccccc1)CC(=O)c1ccccc1
inactive: dose: 0.5 mg/kg/injection, schedule: Q04DX003 (ip), vehicle: saline 101 % of control | dose: 1.0 mg/kg/injection, schedule: Q04DX003 (ip), vehicle: saline 94 % of control | dose: 2.0 mg/kg/injection, schedule: Q04DX003 (ip), vehicle: saline 95 % of control

COc1cc(C)c(Br)c(OC)c1
inactive: dose: 100.0 mg/kg/injection, schedule: Q04DX003 (ip), vehicle: saline with Tween-80 92 % of control | dose: 200.0 mg/kg/injection, schedule: Q04DX003 (ip), vehicle: saline with Tween-80 99 % of control | dose: 400.0 mg/kg/injection, schedule: Q04DX003 (ip), vehicle: saline with Tween-80 99 % of control

CSc1ccc(NC(=O)N(CCCl)N=O)cc1
inactive: dose: 2.3 mg/kg/injection, schedule: Q01DX001 (ip), vehicle: other 121 % of control | dose: 3.5 mg/kg/injection, schedule: Q01DX001 (ip), vehicle: other 122 % of control
